# Results reported in PubChem BioAssay (NCI).
#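 Results reflect a 48-hour exposure of cells in 96-well plates to compound at five concentrations. TGI marks complete inhibition of growth.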
# What was measured:
# Test in all cases: NCI-60 cell line screen, 48 h
# CAKI-1 renal = tested on: CAKI-1 renal
# NCI-H23 lung = tested on: NCI-H23 lung
# NCI-H522 lung = tested on: NCI-H522 lung
# SF-295 CNS = tested on: SF-295 CNS
# SN12C renal = tested on: SN12C renal
# SF-539 CNS = tested on: SF-539 CNS
# MALME-3M melanoma = tested on: MALME-3M melanoma
# SF-268 CNS = tested on: SF-268 CNS
# COLO 205 colon = tested on: COLO 205 colon
# EKVX NSCLC = tested on: EKVX NSCLC
# ACHN renal = tested on: ACHN renal
# HT29 colon = tested on: HT29 colon
# SNB-75 CNS = tested on: SNB-75 CNS
# M19-MEL melanoma = tested on: M19-MEL melanoma
# DMS 273 small cell lung = tested on: DMS 273 small cell lung
# SNB-19 CNS = tested on: SNB-19 CNS
# XF 498 CNS = tested on: XF 498 CNS
# DLD-1 colon = tested on: DLD-1 colon
# LXFL 529 NSCLC = tested on: LXFL 529 NSCLC
# HOP-62 NSCLC = tested on: HOP-62 NSCLC
# OVCAR-4 ovarian = tested on: OVCAR-4 ovarian
# MOLT-4 leukemia = tested on: MOLT-4 leukemia
# OVCAR-8 ovarian = tested on: OVCAR-8 ovarian
# UO-31 renal = tested on: UO-31 renal
# SK-MEL-28 melanoma = tested on: SK-MEL-28 melanoma
# TK-10 renal = tested on: TK-10 renal
# K-562 leukemia = tested on: K-562 leukemia
# OVCAR-5 ovarian = tested on: OVCAR-5 ovarian
# LOX IMVI melanoma = tested on: LOX IMVI melanoma
# A498 renal = tested on: A498 renal
# RPMI-8226 leukemia = tested on: RPMI-8226 leukemia
# SK-MEL-5 melanoma = tested on: SK-MEL-5 melanoma
# IGROV1 ovarian = tested on: IGROV1 ovarian
# SK-OV-3 ovarian = tested on: SK-OV-3 ovarian
# NCI-H226 lung = tested on: NCI-H226 lung
# NCI-H460 lung = tested on: NCI-H460 lung
# HCT-15 colon = tested on: HCT-15 colon
# UACC-257 melanoma = tested on: UACC-257 melanoma
# OVCAR-3 ovarian = tested on: OVCAR-3 ovarian
# 786-0 renal = tested on: 786-0 renal
# KM12 colon = tested on: KM12 colon
# SW-620 colon = tested on: SW-620 colon
# RXF 393 renal = tested on: RXF 393 renal
# SK-MEL-2 melanoma = tested on: SK-MEL-2 melanoma
# A549 NSCLC = tested on: A549 NSCLC
# HOP-92 NSCLC = tested on: HOP-92 NSCLC
# HL-60(TB) leukemia = tested on: HL-60(TB) leukemia
# UACC-62 melanoma = tested on: UACC-62 melanoma
# M14 melanoma = tested on: M14 melanoma
# DMS 114 small cell lung = tested on: DMS 114 small cell lung
# HCC-2998 colon = tested on: HCC-2998 colon
# CCRF-CEM leukemia = tested on: CCRF-CEM leukemia
# SNB-78 CNS = tested on: SNB-78 CNS
smiles,measurement,setting,value
Brc1cc(C2OCCCO2)ccc1OCc1ccccc1,TGI,CAKI-1 renal,> 100 µM
same,TGI,NCI-H23 lung,> 100 µM
same,TGI,NCI-H522 lung,> 100 µM
same,TGI,SF-295 CNS,> 100 µM
same,TGI,SN12C renal,> 100 µM
same,TGI,SF-539 CNS,> 100 µM
same,TGI,MALME-3M melanoma,> 100 µM
same,TGI,SF-268 CNS,> 100 µM
same,TGI,COLO 205 colon,56.9 µM
same,TGI,EKVX NSCLC,> 100 µM
same,TGI,ACHN renal,> 100 µM
same,TGI,HT29 colon,33.2 µM
same,TGI,SNB-75 CNS,> 100 µM
same,TGI,M19-MEL melanoma,> 100 µM
same,TGI,DMS 273 small cell lung,> 100 µM
same,TGI,SNB-19 CNS,> 100 µM
same,TGI,XF 498 CNS,> 100 µM
same,TGI,DLD-1 colon,> 100 µM
same,TGI,LXFL 529 NSCLC,> 100 µM
same,TGI,HOP-62 NSCLC,> 100 µM
same,TGI,OVCAR-4 ovarian,> 100 µM
same,TGI,MOLT-4 leukemia,> 100 µM
same,TGI,OVCAR-8 ovarian,> 100 µM
same,TGI,UO-31 renal,> 100 µM
same,TGI,SK-MEL-28 melanoma,> 100 µM
same,TGI,TK-10 renal,> 100 µM
same,TGI,K-562 leukemia,> 100 µM
same,TGI,OVCAR-5 ovarian,92.5 µM
same,TGI,LOX IMVI melanoma,63.5 µM
same,TGI,A498 renal,> 100 µM
same,TGI,RPMI-8226 leukemia,> 100 µM
same,TGI,SK-MEL-5 melanoma,71.4 µM
same,TGI,IGROV1 ovarian,> 100 µM
same,TGI,SK-OV-3 ovarian,> 100 µM
same,TGI,NCI-H226 lung,> 100 µM
same,TGI,NCI-H460 lung,> 100 µM
same,TGI,HCT-15 colon,> 100 µM
same,TGI,UACC-257 melanoma,> 100 µM
same,TGI,OVCAR-3 ovarian,> 100 µM
same,TGI,786-0 renal,> 100 µM
same,TGI,KM12 colon,> 100 µM
same,TGI,SW-620 colon,> 100 µM
same,TGI,RXF 393 renal,> 100 µM
same,TGI,SK-MEL-2 melanoma,> 100 µM
same,TGI,A549 NSCLC,> 100 µM
same,TGI,HOP-92 NSCLC,> 100 µM
same,TGI,HL-60(TB) leukemia,> 100 µM
same,TGI,UACC-62 melanoma,> 100 µM
same,TGI,M14 melanoma,> 100 µM
same,TGI,DMS 114 small cell lung,> 100 µM
same,TGI,HCC-2998 colon,> 100 µM
same,TGI,CCRF-CEM leukemia,> 100 µM
same,TGI,SNB-78 CNS,> 100 µM
